These results are taken from publication PMC10510381, “Alkyne as a Latent Warhead to Covalently Target SARS-CoV-2 Main Protease” (Journal of Medicinal Chemistry, 2023).

“And” between values parts separate entries of the source, which are not always exact repeats. Equal values may be shown once. “Also recorded” adds a separate entry of the source. Read-outs that look alike come from different tables or passages of the source. Residues, ends and D or L forms follow the SMILES beside them. *: point of attachment. Cbz = O=C(OCc1ccccc1)*

One data set relates to HEK293T proteome. The data set can be described thus: Proteomic labeling of parental HEK293T cells (in-gel fluorescence). It is filed as cell-based, human.
Data set [1] has as its target M^pro expressed in HEK293T cells (Severe acute respiratory syndrome coronavirus 2, UniProt P0DTD1). It is filed as cell-based. To be noted: HEK293T transiently transfected with M^pro.
For another data set, the system named is HeLa proteome. It is filed as cell-based, human.
For another data set, the target named is recombinant M^pro (Severe acute respiratory syndrome coronavirus 2, UniProt P0DTD1). It is filed as binding.
Another data set deals with SARS-CoV-2 M^pro (Severe acute respiratory syndrome coronavirus 2, UniProt P0DTD1). The data set can be described thus: biochemical. To be noted: for inhibition against M^pro: up to 80 μM.
The subject of another data set is SARS-CoV-2. Format: cell-based.
[2] abbreviates: 15-min treatment of M^pro (0.5 μM), FRET substrate 20 μM, both duplicate values given, read-out: IC50.
Setting [3] is: 15-min pre-incubation, read-out: IC50 (average of duplicate).

Regarding `C#CC[C@H](NC(=O)C(F)(F)F)C(=O)N1C[C@H]2[C@@H]([C@H]1C(=O)N[C@H](C#C)C[C@@H]1CCNC1=O)C2(C)C` [Alk-4d, O=C1NCC[C@H]1C[C@@H](C#C)NC([C@H]2N(C([C@@H](NC(C(F)(F)F)=O)CC#C)=O)C[C@H]3[C@@H]2C3(C)C)=O], the “proteome labeling, HEK293T cells” value was “little labeling; also recorded: did not label any proteins” in the data set with HEK293T proteome (1 hour, up to 30 μM) and “little proteome labeling” with HEK293T proteome (5 h, all tested concentrations). In addition, the “labeling of M^pro in live cells” value in data set [1] is given as “dose-dependent labeling”. In addition, the “proteome labeling, HeLa cells” value with HeLa proteome is given as “little labeling”. Moreover, on recombinant M^pro (1 h treatment), the “probe concentration for efficient labeling of M^pro” value is “above 1 μM”. For the same molecule, at recombinant M^pro (1 h treatment), the “probe concentration reaching saturation of M^pro labeling” value came out at 3 µM.
Regarding `C#CC[C@H](NC(=O)C(F)(F)F)C(=O)N1C[C@H]2[C@@H]([C@H]1C(=O)N[C@H](C#CC(F)(F)F)C[C@@H]1CCNC1=O)C2(C)C` [Alk-4i, O=C1NCC[C@H]1C[C@@H](C#CC(F)(F)F)NC([C@H]2N(C([C@@H](NC(C(F)(F)F)=O)CC#C)=O)C[C@H]3[C@@H]2C3(C)C)=O], in the data set with HEK293T proteome (5 h, 10 μM), the “proteome labeling, HEK293T cells” value is given as “significant labeling”. Besides, the “lowest concentration tested, giving intense labeling of M^pro” value on recombinant M^pro is 300 nM. Besides, the “incubation time to label M^pro near saturation” value on recombinant M^pro (time-course) turned out to be 5 min.
As usually defined, the IC50 is the concentration that inhibits the measured activity by half. Turning to `CC(C)C[C@H](NC(=O)OCc1ccccc1)C(=O)N[C@H](/C=C/C(=O)OCc1ccccc1)CCC(N)=O` [Compound 1a, O=C(N[C@@H](CCC(N)=O)/C=C/C(OCC1=CC=CC=C1)=O)[C@H](CC(C)C)NC(OCC2=CC=CC=C2)=O], the IC50 at SARS-CoV-2 M^pro (setting [2]) was 2.5 µM and 3.9 µM.
Same read-out and setting: with `CC(C)C[C@H](NC(=O)OCc1ccccc1)C(=O)N[C@H](/C=C/S(C)(=O)=O)CCC(N)=O` [Compound 1b, O=C(N[C@@H](CCC(N)=O)/C=C/S(C)(=O)=O)[C@H](CC(C)C)NC(OCC1=CC=CC=C1)=O] the figure was 12 µM and 18 µM.
As to `CNS(=O)(=O)/C=C/[C@H](CCC(N)=O)NC(=O)[C@H](CC(C)C)NC(=O)OCc1ccccc1` [Compound 1c, O=C(N[C@@H](CCC(N)=O)/C=C/S(=O)(NC)=O)[C@H](CC(C)C)NC(OCC1=CC=CC=C1)=O], the IC50 at SARS-CoV-2 M^pro (setting [3]) was 47 µM; on SARS-CoV-2 M^pro (setting [2]) it was 39 µM and 55 µM.
On to `C#C[C@H](CCC(N)=O)NC(=O)[C@H](CC(C)C)NC(=O)OCc1ccccc1` [Compound 1d, O=C(N[C@@H](CCC(N)=O)C#C)[C@H](CC(C)C)NC(OCC1=CC=CC=C1)=O], for which the IC50 at SARS-CoV-2 M^pro (setting [2]) is 35 µM and 60 µM.
Consider `CC(C)C[C@H](NC(=O)OCc1ccccc1)C(=O)N[C@H](C=O)CCC(N)=O` [Compound 1e, O=C(N[C@@H](CCC(N)=O)C([H])=O)[C@H](CC(C)C)NC(OCC1=CC=CC=C1)=O] (Cbz-Leu-Gln-aldehyde), for which the IC50 on SARS-CoV-2 M^pro (setting [2]) was over 80 µM. Further, the “inhibition against M^pro” value against SARS-CoV-2 M^pro was “failed to cause significant inhibition”.
For `CC(C)C[C@H](NC(=O)OCc1ccccc1)C(=O)N[C@@H](CCC(N)=O)C(=O)C(=O)NCc1ccccc1` [Compound 1f, O=C(N[C@@H](CCC(N)=O)C(C(NCC1=CC=CC=C1)=O)=O)[C@H](CC(C)C)NC(OCC2=CC=CC=C2)=O], in that order: over 80 µM and “failed to cause significant inhibition”.
On the same counts, the results for `CC(C)C[C@H](NC(=O)OCc1ccccc1)C(=O)N[C@H](C#N)CCC(N)=O` [Compound 1g, O=C(N[C@@H](CCC(N)=O)C#N)[C@H](CC(C)C)NC(OCC1=CC=CC=C1)=O] are over 80 µM and “failed to cause significant inhibition”.
With `C#C[C@H](CCC(N)=O)NC(=O)[C@H](CC(C)C)NC(=O)c1cc2c(OC)cccc2[nH]1` [Compound 2d, O=C(N[C@@H](CCC(N)=O)C#C)[C@H](CC(C)C)NC(C1=CC2=C(C=CC=C2OC)N1)=O], the IC50 at SARS-CoV-2 M^pro (15-min pre-incubation, both duplicate values given, read-out: IC50 uM (15-min pre-incubation)) turned out to be 22 µM; on SARS-CoV-2 M^pro (setting [2]), 22 µM.
On to `COc1cccc2[nH]c(C(=O)N[C@@H](CC(C)C)C(=O)N[C@H](C#N)CCC(N)=O)cc12` [Compound 2g, O=C(N[C@@H](CCC(N)=O)C#N)[C@H](CC(C)C)NC(C1=CC2=C(C=CC=C2OC)N1)=O], for which the IC50 at SARS-CoV-2 M^pro (setting [2]) is 29 µM and 30 µM.
Take `C#C[C@H](C[C@@H]1CCNC1=O)NC(=O)[C@H](CC(C)C)NC(=O)c1cc2c(OC)cccc2[nH]1` [Compound 3d, O=C(N[C@@H](C[C@H]1C(NCC1)=O)C#C)[C@H](CC(C)C)NC(C2=CC3=C(C=CC=C3OC)N2)=O]: the IC50 on SARS-CoV-2 M^pro (setting [3]) is about 7 µM; on SARS-CoV-2 M^pro (setting [2]) it was 10 µM and 4.4 µM.
For `CC(C)(C)[C@H](NC(=O)C(F)(F)F)C(=O)N1C[C@H]2[C@@H]([C@H]1C(=O)N[C@H](C=O)C[C@@H]1CCNC1=O)C2(C)C` [Compound 4e, O=C1NCC[C@H]1C[C@@H](C([H])=O)NC([C@H]2N(C([C@@H](NC(C(F)(F)F)=O)C(C)(C)C)=O)C[C@H]3[C@@H]2C3(C)C)=O], the IC50 on SARS-CoV-2 M^pro (setting [2]) was 0.29 µM and 0.3 µM.
On to `CC(C)(C)[C@H](NC(=O)C(F)(F)F)C(=O)N1C[C@H]2[C@@H]([C@H]1C(=O)N[C@H](C#N)C[C@@H]1CCNC1=O)C2(C)C` [Compound 4g, nirmatrelvir, reference compound], for which the cytotoxicity result with Hela-ACE2 cells (up to the highest concentration tested, 10 μM, 20 h) is on record as “no notable cytotoxicity”.
`CC(C)(C)[C@H](NC(=O)C(F)(F)F)C(=O)N1C[C@H]2[C@@H]([C@H]1C(=O)N[C@@H](C[C@@H]1CCNC1=O)C(N)=O)C2(C)C` [Compound 4h, O=C1NCC[C@H]1C[C@@H](C(N)=O)NC([C@H]2N(C([C@@H](NC(C(F)(F)F)=O)C(C)(C)C)=O)C[C@H]3[C@@H]2C3(C)C)=O]: on SARS-CoV-2 M^pro (setting [2]), the IC50 is over 80 µM.
Regarding `CC(C)(C)[C@H](NC(=O)C(F)(F)F)C(=O)N1C[C@H]2[C@@H]([C@H]1C(=O)N[C@H](C#CC(F)(F)F)C[C@@H]1CCNC1=O)C2(C)C` [Compound 4i, O=C1NCC[C@H]1C[C@@H](C#CC(F)(F)F)NC([C@H]2N(C([C@@H](NC(C(F)(F)F)=O)C(C)(C)C)=O)C[C@H]3[C@@H]2C3(C)C)=O], the antiviral activity result in the data set with SARS-CoV-2 is recorded as “strong, dose-dependent antiviral activity”. In addition, the anti-COVID activity result in the data set with SARS-CoV-2 (sub-micromolar concentrations, HeLa-ACE2, 24 h) is “significant anti-COVID activity”. Further, the cytotoxicity entry in the data set on Hela-ACE2 cells was “no notable cytotoxicity”. Besides, at recombinant M^pro (competition with 10 μM Alk-4d), the “concentration sufficient to abolish labeling of M^pro” value came to 1 µM.
